Experimental data taken from ChEMBL document CHEMBL1150952, “Isolation, identification, and biological activity of isopersin, a new compound from avocado idioblast oil cells” (1998).

What was measured:
[1] = tested on: Spodoptera exigua; assay: Insecticidal activity against early instar Spodoptera exigua assessed as mortality at 500 ug/g after 7 days by artificial diet bioassay relative to control; format: functional
[2] = tested on: Spodoptera exigua; assay: Insecticidal activity against early instar Spodoptera exigua assessed as larval weight at 500 ug/g after 7 days by artificial diet bioassay; format: functional

SMILES	Activity [1] [%]	Activity [2] [mg]
CCCCC/C=C\C/C=C\CCCCCCCC(=O)CC(CO)OC(C)=O (stereo not drawn) [ISOPERSIN]	12	26.45
CCCCC/C=C\C/C=C\CCCCCCCC(=O)C[C@@H](O)COC(C)=O	80	–
